Entries after “also recorded” stand apart in the source; their conditions may differ. Read-outs that look alike come from different tables or passages of the source.
Legend:
Sm.5HTR [1] = target: Sm.5HTR (Schistosoma mansoni, UniProt G4V5G4); type: cell-based; conditions: for activity at Sm.5HTR, in words: antagonist screen, FIG. 7
Protocol: (§1) HEK293 cells (ATCC CRL-1573.3) were cultured in DMEM supplemented with 10% fetal bovine serum (FBS), penicillin (100 units/mL), streptomycin (100 μg/mL), and L-glutamine (290 μg/mL). Cells were transiently transfected (ViaFect, Promega) as per the manufacturer's protocol at a density of 2×10^6 cells per T-25 cell-culture flask. Cells were transfected with plasmids encoding GloSensor (Promega) and either Sm.5HTR, (Smp_126730, GenBank accession number KF444051.1) or Sm.5HTRL (KX150867), both GPCRs being codon optimized for mammalian expression, or Hs.5HT7a (GenBank accession number NM_000872.4, R&D Systems) subcloned into pCS2(−). Cell culture reagents were from Invitrogen. Epitope tagged constructs were used to verify expression, and untagged constructs used for all luminescence assays.
(§2) For assays performed on adherent cells, HEK-293 cells were transferred one day post transfection to 96 well, solid white plates (Corning, cat #3917) coated with 0.01% poly-L-lysine (Sigma Aldrich) at a density of 5×10^4 cells/well in DMEM supplemented with 1% dialyzed FBS (Gibco). After overnight culture (37° C./5% CO2), media was decanted and replaced with 100 μL/well HBSS supplemented with 0.1% BSA, 20 mM HEPES (pH 7.4) and GloSensor™ reagent. Plates were allowed to equilibrate at room temperature for two hours prior to performing luminescence assays (GloMax-Multi Detection System plate reader, Promega). Conditions for individual assays were described as per figure legends. The standard assay to detect changes in cAMP utilized the F22 sensor in media supplemented with IBMX (200 μM). Ligands were added at a concentration of 20× per well for experiments (i.e., 5 μl of drug solution added to 100 μL of cells). […] For the resazurin reduction assay for cellular viability, cells were incubated with resazurin (final concentration, 10 μM) and tested ligands with fluorescence measurements (560 nm excitation/590 nm emission) made at 1.5 hours intervals.
(§3) The protocol for screening is shown schematically in FIG. 5A. HEK293 cells transiently transfected with either the human 5HT7 receptor (Hs.5HT7R) or the schistosome receptor (Sm.5HTR) were exposed to test ligands in a 96-well plate format. […] Luminescence was then read at a fixed time point (t=60 minutes, FIG. 5A). Hits were assigned as compounds that evoked a ≥50% decrease in luminescence output at the fixed time sampling point (FIG. 5B).

Sm.5HTR [2] = target: Sm.5HTR (Schistosoma mansoni, UniProt A0A173FEI8); assay: cell-based; conditions: for antagonist activity at Sm.5HTR, in words: FIG. 18B
Protocol: HEK293 cells (ATCC CRL-1573.3) were cultured in growth media consisting of DMEM supplemented with GlutaMAX (Gibco cat #10566016)+10% heat inactivated fetal bovine serum and penicillin-streptomycin (100 units/mL, ThermoFisher). Stable cell lines for the pGloSensor-22F cAMP Plasmid (Promega) and schistosome 5HTRs in pcDNA3.1(−) were selected with hygromycin (200 μg/mL) and G418 (400 μg/mL). The correct identity of each stably expressed sequence was verified by isolating total RNA from each stable line (TRIzol Reagent, Ambion) and amplifying the sequence of interest with gene specific primers flanking the 5′ and 3′ regions of the cds (SuperScript® III One-Step RT-PCR System, Invitrogen). PCR products were ligated into a TA cloning vector (pGEM-T Easy, Promega) and sequenced.
HEK293 lines stably expressing both the 22F cAMP sensor and Sm.5HTR were cultured in growth media supplemented with 10% dialyzed FRS. For cAMP assays in 96 well format, cells cultured in T-75 flasks were trypsinized (TrypLE Express, Gibco) and plated in solid white 96 well plates (Costar cat #3917) the day prior to assay at a density of 2.5×10^4 cells/well. The following day media was removed and replaced with assay buffer consisting of HBSS buffered with HEPES (20 mM, pH 7.4)+BSA (0.1% w/v) and D-luciferin sodium salt (1 mg/mL, Gold Biotechnology). Plates were equilibrated at room temperature for 1 hour, at which point 3-Isobutyl-1-methylxanthine (IBMX 200 μM, Sigma Aldrich) was added. Plates were equilibrated a further 30 minutes prior to test compound addition. […] Readings performed in 384 well format were modified so that cells were assayed in suspension. Cells were grown to 70% confluence in T-75 flasks, trypsinized and pelleted (300 RCF×5 minutes). Media was removed and cells were resuspended in 25 mL assay buffer supplemented with IBMX (200 μM). A 96 channel semi-automated pipet (Eppendorf epMotion 96) delivered 55 μL of cell suspension per well (5000 cells/well) into solid white 384 plates (Corning 3574).

Hs.5HT7R = target: T1, Hs.5HT7R (Homo sapiens, UniProt P34969); assay: GloSensor cAMP assay, HEK293 cells transiently transfected with Hs.5HT7R; type: cell-based
T1 construct: host or cells: HEK293 (ATCC CRL-1573.3), transient, pCS2(−), co-transfected with GloSensor
Protocol: as §1, §2, §3

Sm.5HTRL = Sm.5HTRL (Schistosoma mansoni, UniProt A0A173FEI8); assay: GloSensor cAMP assay, HEK293 cells transiently transfected with Sm.5HTRL; type: cell-based; conditions: antagonists 10 μM; 5-HT EC80 dose 0.8 μM (FIG. 8)
Protocol: as §1, §2

[3] = system: S. mansoni schistosomules; assay: Schistosomule contractility assay; type: cell-based; conditions: Schistosoma mansoni, read-out: IC50, inhibition of 5-HT evoked contractions
Protocol: FIGS. 14A-14F. […] Effects of selected ligands on schistosomules. […] A contractile cycle is defined when a deviation of ≥20% of the average body length (dashed lines) occurs.
Biomphalaria glabrata (M-line) snails exposed to Schistosoma mansoni miracidia (Strain PR-1) were obtained from BEI Resources (Cat. number NR-21961) and cercaria were shed following exposure to light (1.5 hours). Cercaria were manually transformed into schistosomula by vortexing (3×45 seconds, each separated by 3 minutes on ice) and tails were removed by gradient centrifugation (24 mL Percoll, 4 mL 10×EMEM, 1.5 ml penicillin-streptomycin, 1 mL of 1M HEPES in 0.85% NaCl, 9.5 ml distilled water) at 500 g/15 minutes at 4° C. Supernatant containing tails was discarded, and schistosomules were resuspended in Basch media and incubated (37° C., 5% CO2) overnight before conducting mobility assays. For contractility experiments, somules were incubated in 5-HT free Basch media to resolve a basal contractility rate. […] Schistosomules were incubated in 24 well plates (about 200 schistosomules/0.5 mL media per well) for 30 minutes (37° C./5% CO2) prior to acquiring videos of schistosome movement (1 minute recordings/well) using a Nikon Coolpix 5700 camera affixed to a Nikon Eclipse TS100 microscope (10× objective). The WrmTrck plugin for ImageJ was used to quantify worm mobility (El-Shehabi et al., 2012). Briefly, the major axis of each schistosomule body length was extracted from the raw output of WrmTrck and an average length was determined for the duration of the recording. Contractions were quantified by determining the number of episodes during which the worm body length deviated from the average by over 20%. S. mansoni protocols were approved by the Iowa State University Institutional Biosafety Committee.

Chain of Sm.5HTR (Schistosoma mansoni, UniProt G4V5G4) (G4V5G4 entry or part of it): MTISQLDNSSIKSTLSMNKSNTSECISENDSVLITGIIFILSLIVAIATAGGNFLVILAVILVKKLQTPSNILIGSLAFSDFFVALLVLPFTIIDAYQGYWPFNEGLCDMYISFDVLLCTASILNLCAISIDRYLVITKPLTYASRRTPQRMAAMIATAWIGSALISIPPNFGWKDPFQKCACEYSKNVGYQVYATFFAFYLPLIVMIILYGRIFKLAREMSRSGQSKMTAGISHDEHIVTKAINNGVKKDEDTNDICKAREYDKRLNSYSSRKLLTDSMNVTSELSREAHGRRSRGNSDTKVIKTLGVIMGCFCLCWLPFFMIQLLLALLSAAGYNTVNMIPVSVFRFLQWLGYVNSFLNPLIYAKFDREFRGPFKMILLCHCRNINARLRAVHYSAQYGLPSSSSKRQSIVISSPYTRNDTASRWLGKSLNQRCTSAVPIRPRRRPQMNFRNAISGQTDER
Chain of Sm.5HTR (Schistosoma mansoni, UniProt A0A173FEI8) (A0A173FEI8 entry or part of it): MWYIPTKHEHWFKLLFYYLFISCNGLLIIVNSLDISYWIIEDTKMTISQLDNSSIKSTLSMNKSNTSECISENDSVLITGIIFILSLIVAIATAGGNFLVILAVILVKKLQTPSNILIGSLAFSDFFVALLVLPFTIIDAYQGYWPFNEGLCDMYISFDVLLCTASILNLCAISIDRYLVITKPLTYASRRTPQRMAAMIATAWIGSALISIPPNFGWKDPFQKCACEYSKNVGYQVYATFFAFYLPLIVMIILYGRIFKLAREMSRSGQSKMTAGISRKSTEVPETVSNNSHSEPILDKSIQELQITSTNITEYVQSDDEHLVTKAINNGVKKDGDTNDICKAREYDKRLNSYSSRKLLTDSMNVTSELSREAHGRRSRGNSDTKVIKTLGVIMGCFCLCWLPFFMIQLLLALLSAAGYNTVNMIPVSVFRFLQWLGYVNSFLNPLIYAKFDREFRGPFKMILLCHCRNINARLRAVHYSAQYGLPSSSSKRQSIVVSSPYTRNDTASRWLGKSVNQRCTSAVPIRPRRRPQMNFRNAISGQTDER
T1 sequence (P34969 1-445 isoform P34969-2): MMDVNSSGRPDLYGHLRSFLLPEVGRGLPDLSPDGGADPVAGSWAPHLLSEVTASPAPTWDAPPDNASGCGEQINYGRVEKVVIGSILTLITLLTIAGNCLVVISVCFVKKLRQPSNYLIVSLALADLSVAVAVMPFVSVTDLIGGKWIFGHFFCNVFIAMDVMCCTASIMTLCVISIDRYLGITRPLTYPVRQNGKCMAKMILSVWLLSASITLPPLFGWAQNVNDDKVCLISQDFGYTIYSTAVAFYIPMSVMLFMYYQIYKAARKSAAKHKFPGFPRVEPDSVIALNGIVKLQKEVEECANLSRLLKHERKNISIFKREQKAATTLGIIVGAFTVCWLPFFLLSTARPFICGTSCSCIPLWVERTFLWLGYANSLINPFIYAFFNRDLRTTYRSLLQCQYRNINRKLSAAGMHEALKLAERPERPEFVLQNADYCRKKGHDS
Chain of Sm.5HTRL (A0A173FEI8 entry or part of it): as the sequence (A0A173FEI8 entry or part of it) above

Question: What does the source list for CN1C[C@H](C(=O)N[C@]2(C)O[C@@]3(O)[C@@H]4CCCN4C(=O)[C@H](Cc4ccccc4)N3C2=O)C[C@@H]2c3cccc4[nH]cc(c34)C[C@H]21 [dihydroergotamine]?
Answer: agonist efficacy at Sm.5HTR, in words (Sm.5HTR [1]; FIG. 10A): partial agonism; EC50 (Sm.5HTR [1]; FIG. 10A, read-out: EC50, agonist activity at Sm.5HTR): 315 nM; Emax (Sm.5HTR [2]; HEK293, read-out: Sm.5HTR Emax): 103 ± 11%

Question: For CNCCC(Oc1ccc(C(F)(F)F)cc1)c1ccccc1 (stereo not drawn) [fluoxetine], which “selectivity Sm.5HTR versus Hs.5HT7R (IC50 (Hs.5HT7R)/IC50 (Sm.5HTR)), in words” value (“selectivity Sm.5HTR versus Hs.5HT7R” below) (Sm.5HTR [1]) is on record?
Answer: Its value is “preferential selectivity toward Sm.5HTR”.

Question: What does the source list for O=S(=O)(c1ccccc1)c1cnc2c(N3CCNCC3)cccc2c1 [SB742457]?
Answer: activity at Sm.5HTR, in words (Sm.5HTR [1]): completely lacked activity at Sm.5HTR; also recorded: modest effects on Sm.5HTR; inhibition of Hs.5HT7R, in words (Hs.5HT7R; FIG. 7): potent inhibitors of Hs.5HT7R

Question: With CNCC[C@@H](Oc1ccccc1C)c1ccccc1 [atomoxetine] as the compound, how does the “selectivity Sm.5HTR versus Hs.5HT7R” value (Sm.5HTR [1]) read?
Answer: Its value is “clear selectivity for Sm.5HTR; also recorded: preferential selectivity toward Sm.5HTR”.

Question: What about the “inhibition of 5-HT evoked cAMP generation through Sm.5HTRL” value (Sm.5HTRL) of the same compound?
Answer: Its value is “inhibited 5-HT evoked cAMP generation through Sm.5HTRL”.

Question: Which “antagonist activity at Sm.5HTR, in words” value (Sm.5HTR [2]) does the source give for CC(C)[C@@]1(NC(=O)[C@@H]2C[C@@H]3c4cccc5[nH]cc(c45)C[C@H]3N(C)C2)O[C@@]2(O)[C@@H]3CCCN3C(=O)[C@H](Cc3ccccc3)N2C1=O [dihydroergocristine] here?
Answer: Its value is “is an antagonist”.

Question: And the Emax (Sm.5HTR [2]; HEK293, agonist read, 45 minutes, read-out: Sm.5HTR Emax)?
Answer: The Emax was 22 ± 2%.

Question: Which “activity at Sm.5HTR, in words” value (Sm.5HTR [1]) does the source give for CCN1CCCC1CNC(=O)c1cc(S(=O)(=O)CC)c(N)cc1OC (stereo not drawn) [amisulpiride] here?
Answer: The value was “modest effects on Sm.5HTR”.

Question: How did the “antagonist activity at Sm.5HTR, in words” value (Sm.5HTR [2]) turn out when CC(C)C[C@H]1C(=O)N2CCC[C@H]2[C@]2(O)O[C@](NC(=O)[C@@H]3C=C4c5cccc6[nH]cc(c56)C[C@H]4N(C)C3)(C(C)C)C(=O)N12 [α-ergocryptine] was run?
Answer: The value was “loss of antagonist activity”.

Question: And the “Sm.5HTR Emax” value (Sm.5HTR [2]; agonist read, 45 minutes)?
Answer: Its value is “negligible activity”.

Question: What does the source list for COc1ccc2cc1Oc1ccc(cc1)C[C@H]1c3cc(c(OC)cc3CCN1C)Oc1c(OC)c(OC)cc3c1[C@H](C2)N(C)CC3 [tetrandrine]?
Answer: potency (IC50) at Sm.5HTR, lower right quadrant of FIG. 13 (Sm.5HTR [1]; inhibition of cAMP generation): sub-μM potency; potency (IC50) at Hs.5HT7R, lower right quadrant of FIG. 13 (Hs.5HT7R; inhibition of cAMP generation): supra-μM potency; IC50 [3]: ≤ 1000 nM

Question: With COc1cc2nc(N(C)CCCNC(=O)C3CCCO3)nc(N)c2cc1OC (stereo not drawn) [alfuzosin] as the compound, how does the “selectivity Sm.5HTR versus Hs.5HT7R” value (Sm.5HTR [1]; antagonism of 5-HT evoked cAMP, FIGS. 7, 12, 13) read?
Answer: Its value is “clear selectivity for Sm.5HTR”.

Question: And the “inhibition of 5-HT evoked cAMP generation through Sm.5HTRL” value (Sm.5HTRL)?
Answer: The value was “inhibited 5-HT evoked cAMP generation through Sm.5HTRL”.
